One series deals with T1, HDAC6 (Homo sapiens, UniProt Q9UBN7).
T1 sequence (Q9UBN7 1-1215): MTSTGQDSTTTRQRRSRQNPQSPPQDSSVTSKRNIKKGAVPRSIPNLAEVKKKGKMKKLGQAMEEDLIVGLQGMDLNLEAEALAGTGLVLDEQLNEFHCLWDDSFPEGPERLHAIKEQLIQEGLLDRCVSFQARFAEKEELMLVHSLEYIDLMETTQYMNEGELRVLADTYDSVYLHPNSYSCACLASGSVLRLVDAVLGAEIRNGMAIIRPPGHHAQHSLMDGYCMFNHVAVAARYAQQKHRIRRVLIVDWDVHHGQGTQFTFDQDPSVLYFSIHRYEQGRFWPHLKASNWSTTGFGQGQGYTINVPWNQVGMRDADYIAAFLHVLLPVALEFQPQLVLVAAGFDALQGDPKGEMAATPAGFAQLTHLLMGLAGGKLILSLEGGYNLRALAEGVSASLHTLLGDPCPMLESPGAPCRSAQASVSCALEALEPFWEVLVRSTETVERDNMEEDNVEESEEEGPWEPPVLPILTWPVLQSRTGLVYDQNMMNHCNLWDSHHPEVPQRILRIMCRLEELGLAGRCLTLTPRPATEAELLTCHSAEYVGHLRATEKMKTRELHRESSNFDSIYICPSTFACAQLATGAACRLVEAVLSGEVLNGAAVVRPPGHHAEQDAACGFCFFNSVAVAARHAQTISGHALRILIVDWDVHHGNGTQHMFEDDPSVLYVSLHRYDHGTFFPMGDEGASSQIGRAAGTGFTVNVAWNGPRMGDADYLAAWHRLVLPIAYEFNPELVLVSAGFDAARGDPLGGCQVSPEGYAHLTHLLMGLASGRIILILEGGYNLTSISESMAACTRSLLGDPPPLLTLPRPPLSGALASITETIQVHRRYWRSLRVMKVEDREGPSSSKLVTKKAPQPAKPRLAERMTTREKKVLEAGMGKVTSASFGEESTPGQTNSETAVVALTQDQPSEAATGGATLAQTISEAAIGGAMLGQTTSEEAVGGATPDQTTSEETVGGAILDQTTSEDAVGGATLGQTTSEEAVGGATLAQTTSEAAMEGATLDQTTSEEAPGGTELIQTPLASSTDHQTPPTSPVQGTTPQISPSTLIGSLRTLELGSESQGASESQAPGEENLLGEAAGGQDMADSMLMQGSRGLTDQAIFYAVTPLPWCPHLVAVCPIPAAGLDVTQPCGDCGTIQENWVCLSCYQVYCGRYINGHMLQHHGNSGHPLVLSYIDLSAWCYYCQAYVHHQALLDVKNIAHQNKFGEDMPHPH
Kind of series: In vitro HDAC6 inhibition. The class given is biochemical. As to conditions: for inhibition at 10 µM: HDAC6, 10 μM; for IC50: HDAC6, Table 1, read-out: IC50.

In a further series the test system is AP-1. The conditions noted are these: published before; cited from earlier work.
In series [1] the test system is glucocorticoid receptor, GR. Kind of series: GRE-dependent luciferase reporter p(GRE)2-50-luc in A549 cells. Type of series: cell-based. The conditions noted are these: A549; DEX 1 μM; CpdA 10 μM before DEX. Background: A reporter such as luciferase makes a cellular process visible.
Series [2] concerns acetylation of α-tubulin in Neuro-2a cells. Kind of series: Acetylation level of α-tubulin in Neuro-2a cells (Western blot). The class given is cell-based, Mouse. The conditions noted are these: overnight, Neuro-2a; for normalized ratio Acetyl α-Tubulin/α-Tubulin against Tubastatin A, Average: Average of N = 1 to 4. On the procedure: FIG. 1: Potency of inhibiting HDAC6 by compounds 7a, 7b and 13a in Neuro-2a cells. A. Cells were treated overnight with different concentrations of the HDAC6 inhibitors and blotted of the acetylation of α-tubulin.
Mouse neuroblastoma (Neuro-2a) cells were grown in a 1:1 mix of D-MEM (Dulbecco's Modified Eagle Medium) and F12 medium supplemented with glutamax (Invitrogen), 100 μg/ml streptomycin, 100 U/ml penicillin (Invitrogen), 10% fetal calf serum (Greiner Bio-one), 1% non-essential amino acids (Invitrogen) and 1.6% NaHCO3 (Invitrogen) at 37° C. and 7.5% CO2. To split the cells, cells were washed with Versene (Invitrogen) and dissociated with 0.05% Trypsine-EDTA (Invitrogen).
For sodium dodecyl sulfate-polyacrylamide gel electrophoresis (SDS-PAGE) analysis, transfected cells were collected using the EpiQuik Total Histone Extraction Kit (EpiGentek) according to manufacturer's instructions. Protein concentrations were determined using microBCA kit (Thermo Fisher Scientific Inc., Pittsburgh, Pa., USA) according to manufacturer's instructions. Before resolving the samples on a 12% SDS-PAGE gel, samples containing equal amounts of protein were supplemented with reducing sample buffer (Thermo Scientific) and boiled at 95° C. for 5 min. After electrophoresis, the proteins were transferred to a polyvinylidene difluoride (PVDF) membrane (Millipore Corp., Bedford, Mass., USA). The non-specific binding was blocked by incubation of the membrane in 5% bovine serum albumin (BSA), diluted in Tris Buffered Saline Tween (TBST, 50 mM TRIS, 150 mM NaCl, 0.1% Tween-20 (Applichem, Darmstadt, Duitsland) for 1 h at room temperature followed by incubation with primary antibodies overnight. The antibodies, diluted in TBS-T, were directed against α-tubulin (1/5000, T6199, Sigma-Aldrich), and acetylated α-tubulin (1/5000, T6793 monoclonal, Sigma-Aldrich). The secondary antibodies, coupled to alkaline phosphatase (anti-mouse or anti-rabbit, 1/5000, Sigma-Aldrich) were used. Blots were visualised by adding the ECF substrate (Enhanced Chemical Fluorescence, GE Healthcare, Uppsala, Sweden) and imaged with the ImageQuant_LAS 4000. A mild reblotting buffer (Millipore) was applied to strip the blots. ImageQuant TL version 7.0-software was used to quantify the blots.
Neuro-2a cells were treated overnight with different concentrations of the HDAC6 inhibitors and the effect on the acetylation level of α-tubulin was determined using Western blots (FIG. 1).
For orientation: Immunoblotting shows a protein as a band on a membrane.

Series [3] relates to TNF-α and IL-6 in LPS stimulated human THP-1 macrophages. The conditions noted are these: reported; cited from earlier work.

Where “and” joins values, the source holds several entries; their conditions need not be identical. Equal entries are not always repeated.

For the compound `O=C(NO)c1ccc(NCc2csc3ccc(-c4ccccc4)cc23)cc1` [Compound 7c, 3-[(4-hydroxycarbamoylphenyl)aminomethyl]-5-phenyl-benzothiophene], the melting point (as a rule, the temperature of the solid-liquid transition) was found to be 181 °C. In addition, on HDAC6, the inhibition – broadly, how much of the control response was suppressed – at 10 µM was 95.1% and the IC50 (commonly the concentration needed to halve the response being measured) turned out to be 310 nM.
Taken in the same sequence, the figures for `Cc1cc(C(=O)NO)ccc1NCc1csc2ccccc12` [Compound 7d, 3-[(4-hydroxycarbamoyl-2-methylphenyl)aminomethyl]-benzothiophene] were 190 °C, 73.4% and 2400 nM.
In the same order, the values of `O=C(NO)c1ccc(N(Cc2ccccc2)Cc2csc3ccccc23)cc1` [Compound 8a, 3-[N-benzyl-N-(4-hydroxycarbamoylphenyl)aminomethyl]-benzothiophene] are 178 °C, 89.9% and 470 nM.
Taken in the same sequence, the figures for `O=C(NO)c1ccc(N(Cc2ccccc2)Cc2csc3ccc(Br)cc23)cc1` [Compound 8b, 5-bromo-3-[N-benzyl-N-(4-hydroxycarbamoylphenyl)aminomethyl]-benzothiophene] were 179 °C, 84.9% and 850 nM.
With `O=C(NO)c1ccc(N(Cc2ccccc2)Cc2csc3ccc(-c4ccccc4)cc23)cc1` [Compound 8c, 3-[N-benzyl-N-(4-hydroxycarbamoylphenyl)aminomethyl]-5-phenyl-benzothiophene], the melting point worked out at 126 °C. At HDAC6, at 10 µM the inhibition was 47.9%.
`O=C(NO)c1ccc(NCc2csc3cc(-c4ccccc4)ccc23)cc1` [Compound 13b, 3-[(4-hydroxycarbamoylphenyl)aminomethyl]-6-phenyl-benzothiophene] returned a melting point of 190.5 °C. Further, at HDAC6, the inhibition at 10 µM came out at 89.8% and the IC50 was found to be 660 nM.
`O=C(NO)c1ccc(N(Cc2ccccc2)Cc2csc3cc(Br)ccc23)cc1` [Compound 14a, 6-bromo-3-[N-benzyl-N-(4-hydroxycarbamoylphenyl)aminomethyl]-benzothiophene]: the melting point stood at 97.5 °C. On HDAC6, the inhibition at 10 µM turned out to be 70.7% and the IC50 amounted to 2100 nM.
Compound `O=C(NO)c1ccc(N(Cc2ccccc2)Cc2csc3cc(-c4ccccc4)ccc23)cc1` [Compound 14b, 3-[N-benzyl-N-(4-hydroxycarbamoylphenyl)aminomethyl]-6-phenyl-benzothiophene] showed a melting point of 102 °C. For the same compound, on HDAC6, 10 µM produced 61.1% inhibition.
Consider `O=C(NO)c1ccc(NCc2c[nH]c3ccccc23)cc1` [Compound 18, 3-[(4-hydroxycarbamoylphenyl)aminomethyl]indole], for which the melting point came out at 132.5 °C. At HDAC6, testing at 10 µM gave an inhibition of 99% and the IC50 is 200 nM.
Take `CNCC(Cl)c1ccc(OC(C)=O)cc1.Cl` (stereo not drawn) [CpdA, reference compound]: the “targeting of AP-1-driven promoters” value in the series on AP-1 is “does not target AP-1-driven promoters”. Moreover, the “GRE-dependent reporter gene activity, reference compounds” value in series [1] is “able to lower the GRE-dependent reporter gene activity”.
`CN1CCc2c(c3ccccc3n2Cc2ccc(C(=O)NO)cc2)C1` [Tub A, Tubastatin A, reference compound]: the “normalized ratio Acetyl α-Tubulin/α-Tubulin against Tubastatin A, Average” value in series [2] (50 nM) was 34.97 and 25.12 and 23.86; in series [2] (100 nM), 44.00 and 41.43 and 34.18; in series [2] (500 nM), 66.24 and 73.15 and 70.36; in series [2] (1 μM) it was 100.00. Also, the “normalized ratio Acetyl α-Tubulin/α-Tubulin against Tubastatin A” value in series [2] (1 μM, single experiments N = 1 to 4, Tub A 1 μM = 100) turned out to be 100.00. Besides, the “inhibition of TNF-α and IL-6” value in series [3] was “significantly inhibit TNF-α and IL-6”.

The values above are taken from patent US9993459B2, “Selective HDAC6 inhibitors and uses thereof” (Universiteit Gent, priority 2015, dated 2018).
